Results reported in ChEMBL document CHEMBL3352810, “Synthesis and evaluation of novel alkannin and shikonin oxime derivatives as potent antitumor agents” (Bioorg Med Chem Lett, 2014).

Assays:
[1] = test system: MCF7; assay: Cytotoxicity against human MCF7 cells by MTT assay; format: functional, cell-based
[2] = test system: DU-145; assay: Cytotoxicity against human DU145 cells by MTT assay; format: functional, cell-based
[3] = test system: K562; assay: Cytotoxicity against human K562 cells by MTT assay; format: functional, cell-based
[4] = Cytotoxicity against human skin fibroblast cells by MTT assay; format: cell-based
[5] = test system: MCF7; assay: Induction of ROS level in human MCF7 cells by flow cytometry relative to control; format: functional
[6] = Alkylation of the compound assessed as bioreductive alkylation after 15 mins; format: physicochemical
[7] = Alkylation of the compound assessed as Michael addition after 15 mins; format: physicochemical

Row | SMILES | IC50 [1] [µM] | IC50 [2] [µM] | IC50 [3] [µM] | IC50 [4] [µM] | Activity [5] [%] | Activity [6] | Activity [7]
1 | CC(C)=CC[C@H](O)C1=CC(=O)c2c(O)ccc(O)c2C1=O [ALKANNIN] | 2.4 | 19.9 | 1.3 | 1.5 | – | – | –
2 | CC(C)=CC[C@@H](OC(=O)C=C(C)C)C1=CC(=O)c2c(O)ccc(O)c2C1=O [DIMETHYLACRYLSHIKONIN] | – | – | – | – | 414.8 | Not Active | Not Active
3 | CC(C)=CC[C@@H](O)C1=CC(=O)c2c(O)ccc(O)c2C1=O [SHIKONIN] | 1.8 | 16 | 0.7 | 1.2 | – | – | –
